Source: patent US6620807B1, “Pyridobenzodiazepine and pyridobenzoxazepine carboxyamide vasopressin agonists” (Wyeth, priority 1999, dated 2003)

Molecular target: T1, Vasopressin V2 (Rattus norvegicus, UniProt Q00788)
T1 construct: Vasopressin V2 Agonist Effects of Test Compounds in Normal Conscious Water-loaded Rats; from tissue; host or cells: whole animal: conscious water-loaded Sprague-Dawley rats (V2 receptors of the kidney collecting ducts)
Test: Vasopressin V2 agonist effects of test compounds in normal conscious water-loaded rats
Type: in vivo
Conditions: oral dose of 10 mg/Kg, water-loaded Sprague-Dawley (CD) rats; for Changes in Urinary Osmolality: osmolality changes expressed as percent of control, urine collected for four hours; for Urine Volume (% decrease): percent decrease in urine volume vs. control, urine collected for four hours after dosing
Excerpt: Vasopressin V2 Agonist Effects of Test Compounds in Normal Conscious Water-loaded Rats:
Male or female normotensive Sprague-Dawley rats (Charles River Laboratories, Inc., Kingston, N.Y.) of 350-500 g body weight were supplied with standard rodent diet (Purina Rodent Lab. Chow 5001) and water ad libitum. On the day of test, rats were placed individually into metabolic cages equipped with devices to separate the feces from the urine and containers for collection of urine. A test compound or a reference agent was given at an oral dose of 10 mg/Kg in a volume of 10 mL/Kg. The vehicle used was 20% dimethylsulfoxide (DMSO) in 2.5% preboiled corn starch. Thirty minutes after dosing the test compound, rats were gavaged with water at 30 mL/Kg into the stomach using a feeding needle. During the test, rats were not provided with water or food. Urine was collected for four hours after dosing of the test compound. At the end of four hours, urine volume was measured. Urinary osmolality was determined using a Fiske One-Ten Osmometer (Fiske Associates, Norwood, Mass., 02062) or an Advanced CRYOMATIC Osmometer, Model 3C2 (Advanced Instruments, Norwood, Mass.). Determinations of Na^+, K^+ and Cl^− ion were carried out using ion specific electrodes in a Beckman SYNCHRON EL-ISE Electrolyte System analyzer. The urinary osmolality should increase proportionally. In the screening test, two rats were used for each compound. If the difference in the urine volume of the two rats was greater than 50%, a third rat was used.

T1 sequence (Q00788 whole entry): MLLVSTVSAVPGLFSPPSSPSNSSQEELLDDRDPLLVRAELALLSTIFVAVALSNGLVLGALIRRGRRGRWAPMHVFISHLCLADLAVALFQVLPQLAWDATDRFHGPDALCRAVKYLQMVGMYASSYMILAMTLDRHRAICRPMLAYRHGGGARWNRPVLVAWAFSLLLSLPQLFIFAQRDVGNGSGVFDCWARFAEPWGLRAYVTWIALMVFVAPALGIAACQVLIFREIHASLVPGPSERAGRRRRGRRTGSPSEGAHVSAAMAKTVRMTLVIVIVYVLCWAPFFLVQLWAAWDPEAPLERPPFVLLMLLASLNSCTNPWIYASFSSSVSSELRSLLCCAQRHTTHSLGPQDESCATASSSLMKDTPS

Compound	Changes in Urinary Osmolality	Urine Volume (% decrease)
Cn1ccc2cc(C(=O)N3Cc4cccnc4Nc4ccccc43)ccc21 [Example 1]	159% of control	74 % decrease
Cn1ccc2cc(C(=O)N3Cc4cccnc4Oc4ccccc43)ccc21 [Example 6]	35% of control	21 % decrease

Other lines, results leading:

Changes in Urinary Osmolality	Urine Volume (% decrease)	Compound
247% of control	61 % decrease	O=C(c1ccc2c(c1)OCO2)N1Cc2cccnc2Nc2ccccc21 [Example 2, Benzo [1,3]Dioxol-5-yl-(5,11-dihydro-benzo[b]pyrido [2.3-e][1,4]Diazepin-6-yl)-mothanone]
54% of control	29 % decrease	O=C(c1ccc2c(c1)CCO2)N1Cc2cccnc2Nc2ccccc21 [Example 3, (5,11-Dihydro-benzo[b]pyrido [2.3-e][1,4]Diazepin-6-yl)-(2,3-dihydro-benzofuran-5-yl)-methanone]
–	13 % decrease	O=C(c1ccc2nonc2c1)N1Cc2cccnc2Nc2ccccc21 [Example 4, Benzo[1,2,5]oxadiazol-5-yl-(5,11-dihydro-benzo[b]pyrido [2.3-e][1,4]Diazepin-6-yl)-methanone]
78% of control	31 % decrease	O=C(c1ccc2ncsc2c1)N1Cc2cccnc2Nc2ccccc21 [Example 5]
